The target in assay [1] is T1, Mhp1 (Microbacterium maritypicum, UniProt D6R8X8).
T1 construct: gene hyuP; full-length wild type with C-terminal His6 tag, purified in DDM
The assay can be described thus: NEM labelling of Cys327 with intact mass spectrometry, protection by ligand. Particulars: 140 mM Na+, pH 8, 25 °C, 0.05% DDM. Type of assay: binding.

In assay [2] the target is T1, Mhp1. Briefly: tryptophan fluorescence quenching titration. The assay is classed as binding. The note with it: 140 mM NaCl (also 15 and 1000 mM).

T1 sequence (D6R8X8 whole entry): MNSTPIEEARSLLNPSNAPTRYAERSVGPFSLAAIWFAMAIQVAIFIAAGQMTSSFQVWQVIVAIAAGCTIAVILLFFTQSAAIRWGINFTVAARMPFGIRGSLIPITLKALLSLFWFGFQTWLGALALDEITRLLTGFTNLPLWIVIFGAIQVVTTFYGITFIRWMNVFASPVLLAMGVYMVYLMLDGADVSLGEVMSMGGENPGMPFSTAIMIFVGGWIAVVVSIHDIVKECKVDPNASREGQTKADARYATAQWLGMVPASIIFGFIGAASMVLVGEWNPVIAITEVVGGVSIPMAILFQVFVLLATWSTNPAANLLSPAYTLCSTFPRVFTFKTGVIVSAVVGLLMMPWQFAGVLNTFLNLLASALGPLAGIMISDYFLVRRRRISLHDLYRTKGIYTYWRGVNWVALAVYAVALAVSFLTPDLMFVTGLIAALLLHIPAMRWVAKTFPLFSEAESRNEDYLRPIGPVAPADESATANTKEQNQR

Take `O=C1NC(=O)[C@H](Cc2c[nH]c3ccccc23)N1` [L-IMH, 5-indolylmethyl-L-hydantoin]: on Mhp1 [1], the “reduction in NEM labeling at 2 mM” value is 5-indolylmethyl-L-hydantoin (L-IMH).
On to `O=C1NC(=O)[C@H](Cc2ccccc2)N1` [L-BH, 5-benzyl-L-hydantoin], for which, at Mhp1 [2], the Kd app entry was “Tryptophan fluorescence quenching of Mhp1 upon titration with L-BH”.

Values taken from PMC5588088, “Topological Dissection of the Membrane Transport Protein Mhp1 Derived from Cysteine Accessibility and Mass Spectrometry” (Analytical Chemistry, 2017).
